Tested on: mouse plasma stability, LC-MS/MS, 48 h
Experiment: Inhibitors of Cruzain: Mouse Plasma Stability Profiling
Conditions: at 2 µM; hits give high values
From the text: Chagas Disease is a neglected tropical disease that affects over 16 million people in Latin America. The cysteine protease cruzain is essential for the survival Trypanosoma cruzi, the parasitic agent responsible for Chagas disease. Potential intervention for T. cruzi includes the inhibition of cruzain. This bioassay will summarize the ongoing development of small molecule cruzain inhbitiors. Currently, a screen of ~200k compounds and through extensive follow-up work a probe was identified. To further characterize the probe, it was tested in in vitro ADME assays. The stability of the lead compound in mouse plasma is tested because this parameter has a significant impact on many ADME-concerned properties of drugs, such as uptake, distribution, transport, and bioavailability. NIH Chemical Genomics Center [NCGC] NIH Molecular Libraries Probe Production Centers Network [MLPCN] MLSCN Grant: DA024891-01 PI Name: Dr. Brian Shoichet; University of California, San Francisco
2uM of compound is incubated in mouse plasma; the reference compound is procaine. Compounds are incubated at 37 deg C for the pre-determined time periods and the when aliquots are removed. Samples are analyzed with LC-MS/MS.

- percent remaining: 95%
SMILES: Cc1ccc(OCCn2c(CCNC(=O)C3CCCCC3)nc3ccccc32)cc1
